Assay results published in patent US8592419B2, “Ceramides and apoptosis-signaling ligand” (MUSC Foundation for Research Development, priority 2004, dated 2013).

Columns and labels:
Format in all cases: cell-based, human
Bak = Bak protein level and Bak foci (Western blot, confocal microscopy); conditions: PPC-1 transfectants, with LCL204 7.5 μM
Procedure: (§1) Immunoblot analysis. Cells were seeded in 60mm plates as described above and treated accordingly. Cells were lifted by gently scraping the plates, washed once with ice cold PBS and then lysed in lysis buffer (PBS, 1% Triton X-100, 10% glycerol) containing protease inhibitors pepstatin A (0.5 μg/ml), leupeptin (0.5 μg/ml), aprotinin (5 μg/ml), and PMSF (100 μg/ml) for 10 minutes on ice. Insoluble material was removed by centrifugation at 14,000 rpm for 15 minutes at 4° C. The supernatants were then supplemented with SDS at a final concentration of 2% and stored at −80° C. Protein concentrations were determined using the DC Protein Assay (BioRad Laboratories; Hercules, CA, USA) according to the manufacturer's instructions. 50 μg of protein per sample (unless otherwise indicated) were separated on NuPAGE 4-12% Bis-Tris gels (Invitrogen; Carlsbad, CA, USA) and transferred to nitrocellulose membranes (BioRad). Following transfer, membranes were blocked for 1 hour at room temperature in Tris-buffered saline (TBS) containing 0.1% Tween-20 and 5% nonfat dry milk and incubated overnight at 4° C. with primary antibody at a dilution of 1:2,000(actin), 1:1,000(cytochrome c, COX IV, Bax, Bak, p53, p38, P-p38), 1:500(P-JNK, JNK), 1:250 (AC, p73), or 1:400(LAMP-1, cathepsin B). Overnight incubations were performed in 5% milk in TBS-Tween. Following overnight incubation, membranes were washed three times for 10 minutes each in TBS-Tween and incubated for 1 hour at room temperature with secondary antibody in 5% milk TBS-Tween at a dilution 1:5,000 (goat anti-mouse IgG) or 1:50,000 (goat anti-rabbit). Membranes were then washed three times more and incubated for 5 minutes at room temperature with Super Signal HRP substrate (Pierce Biotechnology Inc.; Rockford, IL, USA).
Confocal Microscopy and Immunocytochemistry. DU145 cells were grown in 4.3 cm^2 chamber slides (Nalge Nunc) and transfected with YFPmito alone or with the dominant-negative inhibitor of Drp1(K38A) (64) using FuGENE6 (Roche; Indianapolis, IN) according to the manufacturer's instructions using 1 μg of total DNA per chamber. 24 hr after transfection and 30 min prior to treatment with 15 μM LCL204, cells were exposed to zVAD-fmk (50 μM). The slides were fixed with 4% paraformaldehyde for 20 min then permeabilized with 0.2% Triton X-100 for 15 min, followed by blocking with 4% bovine serum albumin for 45 min at RT. Cells were probed with rabbit polyclonal 2-14 anti-Bak antibody (1:5000; BioChem) for 2 hr then stained with goat anti-rabbit Alexa Fluor 543 antibodies (1:250; Molecular Probes) for 45 min. After washing, cells were imaged using the 63x objective of an LSM 510 Zeiss confocal microscope.

p73 = test: Immunoblot of p73
Procedure: as §1

PPC-1/pcDNA3 cells = test: MTS cell viability assay in PPC-1/pcDNA3 cells with kinase inhibitors; conditions: 20 μM SB-203580, 40 μM SP600125, LCL204 8 hours
Procedure: MTS cytotoxicity assays for LCL204 treatments. Cell viability was determined using the CellTiter 96 AQueous One Solution Cell Proliferation Assay (Promega; Madison, Wis., USA). 1×10^4 cells per well were seeded in 96-well plates overnight. The next day media was removed and replaced with either 100 μl media with vehicle control or media containing LCL204 at desired concentrations. Assays were carried out according to manufacturer's instruction as previously described (60). For experiments using enzyme inhibitors and LCL204, media was removed and replaced with 50 μl media containing vehicle only or indicated inhibitor. Cells were pretreated 1 hour at 37° C. before adding 50 μl media containing vehicle, inhibitor only, LCL204 only (2× concentration), or a combination. The remainder of the assay was carried out as described above.
Stable transfections. Both CMV-TAM67 and pcDNA3 vectors were from Dr. Michael Birrer (National Cancer Institute; Rockville, Md.). PPC-1 cells (7×10^5) were transfected with 4 μg of DNA in 60 mm dishes using FuGENE6 according to the manufacturer's instructions. Stably transfected clones were selected in 400 μg/mL G418 (Sigma). TAM67 was detected by Western blot analysis using an antibody for c-Jun (Ab-1, Oncogene) as described above.

C[S+]([O-])c1ccc(-c2nc(-c3ccncc3)c(-c3ccc(F)cc3)[nH]2)cc1 (stereo not shown) [SB-203580, reference compound]
effect of p38 MAPK inhibitor on LCL204-mediated Bak protein levels (Bak): did not appear to block | basal p73 levels, inhibitor alone (p73; PPC-1/pcDNA3 and PPC-1/TAM67 cells, 5 hours): lowered basal p73 levels | effect of kinase inhibitor on LCL204-induced p73 induction (p73; PPC-1 transfectants, with LCL204 7.5 μM): blocked the LCL204-induced p73 up-regulation | effect on LCL204 cell killing (PPC-1/pcDNA3 cells): inhibited cell killing to a similar extent
